# Test system: A431 cells
# Test: in vitro uptake competition experiments with glucose
# Assay type: cell-based, human
# Settings: 1 mM (monovalent) or 0.7 mM (bivalent) probe, 30 minutes, 50 and 100 mM glucose respectively, FIGS. 3B and 3D
# Experimental: The A431 cell line was obtained from the American Type Culture Collection and grown in DMEM with 4.5 g/l glucose, supplemented with 10% fetal bovine serum (Life Technologies, NY) and cultured in a humidified atmosphere containing 5% CO2 and 95% air at 37° C.
# Utilizing the monovalent and bivalent Cy5.5-conjugated glucose probes, in vitro uptake competition experiments were performed by incubating A431 cells with 1 mM (monovalent) or 0.7 mM (bivalent) of each probe, for 30 minutes, in the presence of 50 and 100 mM glucose, respectively. After removal of the medium, cells were rinsed with ice-cold PBS and visualized under confocal microscopy. […] Under the same conditions, free Cy5.5 uptake by A431 cells was not inhibited by incubation with glucose.
smiles,measurement,value
CCN1\C(=C/C=C/C=C/C2=[N+](CCCCCC(=O)O)c3ccc4c(S(=O)(=O)O)cc(S(=O)(=O)O)cc4c3C2(C)C)C(C)(C)c2c1ccc1c(S(=O)(=O)[O-])cc(S(=O)(=O)O)cc21 [free Cy5.5],inhibition of cellular uptake of probe by glucose,not inhibited

# Reference: patent US20110171136A1, “OPTICAL IMAGING PROBES” (priority 2002, published 2011)
